The values that follow come from a melting point compilation (Tetko et al.; mined from patent text by program, amines drawn as free bases though some values may be those of a salt).

Regarding `CCCCc1c(C(C)C)nc(C(C)C)c(CO)c1-c1ccccc1`, the melting point was in the range of 83 to 84 °C.
Consider `O=c1ccc2c(CO)nccc2[nH]1`, for which the melting point is 294 to 300 °C.
Take `CC(=O)NC(Cl)C(Cl)(Cl)CCl` (stereo not given): the melting point was in the range of 70 to 72 °C.
For `CCCCc1ncc(CC(=O)N[C@@H](Cc2ccccc2)C(=O)O)n1Cc1ccccc1Cl` the value was 168 to 170 °C.
In the case of `N#Cc1cc(-c2ccnc(Nc3cccc(Cl)c3)n2)ccn1` it was 221 to 222 °C; in that of `CN(C(=O)c1cc2ccccc2s1)c1ccc(N2CCC(O)CC2)c(C#N)c1`, 211 to 212 °C; in that of `CCN(CC)CC1CCCCN1CCNC(=O)N1c2ccccc2NC(=O)c2ccccc21` (stereo not given), 123 to 125 °C.
In the case of `CC(C)(C)OC(=O)N1CC(NC(=O)CNC(=NC(=O)OCc2ccc([N+](=O)[O-])cc2)NC(=O)OCc2ccc([N+](=O)[O-])cc2)C1`, the melting point is 99 to 101 °C.
For `O=c1c2cc(F)c(Cl)nc2n(Cc2ccccc2)c(=O)n1OCc1ccccc1` the value was 209 to 210 °C; for `CCc1noc(-c2ccc(O)cc2)n1`, 138 °C.
`C#Cc1ccc(SC)cc1Cl` registered a melting point of 46 to 50 °C.
For `COC(=O)c1nc(Cl)cnc1N=S(C)C` the value was 167 to 169 °C.
In turn, `O=c1[nH]c2c(cnn2-c2ccccc2)c2ccccc12` yielded a melting point of 280 °C.
Regarding `CCOC(=O)CN(C)C1CCCN(C(=O)c2ccc(NC(=O)c3ccccc3C)cc2)c2ccccc21` (stereo not given), the melting point is 167 to 168 °C.
Molecule `Cc1ccc(-c2c(Cl)nc(-c3ccccc3)nc2NS(=O)(=O)c2ccc(C(C)(C)C)cc2)cc1` yielded a melting point of 249 to 250 °C.
For `CC(=O)OCCc1ccc(-c2csc(=O)s2)cc1` the value was 55 to 56 °C; for `CS(=O)(=O)c1ccc(-c2ccccc2Cc2cccc(F)c2)cc1`, 97 to 98 °C; for `CCOC(=O)c1c2ccc(Cl)cc2c(-c2ccccc2)n1CCN(CC)CC`, 75 to 77 °C.
Molecule `Cc1ccccc1C(=O)NCN1CCN(c2cccc(C#N)c2)CC1` registered a melting point of 156 to 159 °C.
In the case of `NC(=O)N(O)CCNC(=O)c1cccc(Oc2ccccn2)c1` it was 159 to 160 °C; in that of `CC(C)(C)[C@@H](CO)NC(=O)[C@@H](CC(=O)O)n1ccc(-c2ccc(-c3ccc(C#N)cc3)cc2)c1`, 110 to 112 °C.
For `CCCCCc1ccc(-c2ccc(CCc3ccc(F)cc3)cc2)cc1` the value was 60 °C.
In the case of `CC(=NNc1ccc(C2=NNC(=O)CC2C)cc1)c1cc(O)cc(O)c1` (stereo not given) it was 162 to 166 °C; in that of `Cn1ncc(C(=O)N2CCC2)c1C(=O)Nc1ccn2nc(N3CCCC3)nc2c1`, more than 250 °C.
In turn, `CC(=O)NC[C@H]1CN(c2ccc3c(c2)CC[C@@H](C)N3C=O)C(=O)O1` came in with a melting point of 89 to 91 °C.
In the case of `CNC(=O)ON=C1Oc2ccccc2OC1(C)C` it was 174 to 176 °C; in that of `COc1ccc(S(N)(=O)=O)cc1C(=O)NCc1ccc(OCCN(C)C)cc1`, 122 to 123 °C.
For `CC(=O)Nc1sccc1C(=O)c1ccccc1F` the value was 144 °C.
`CC(=O)OCSc1ccc2c3c(cccc13)C(=O)N2` gave a melting point of 149 to 154 °C.
In the case of `CS(=O)(=O)c1ccc([C@@H](CC2CCCC2)C(=O)Nc2nc3ccccc3s2)cc1` it was 100 to 105 °C; in that of `CC(C)(C(=O)O)c1ccc(-c2ccc(Cl)cc2)s1`, 146 to 148 °C.
For `COc1ccc(Nc2c(N)cc(C(=O)O)cc2S(N)(=O)=O)cc1` the value was 214 °C.
In the case of `CC(C)(C)c1cc(C(c2ccc(C(F)(F)F)cc2)N2CCCCC2)c(O)c(C(C)(C)C)c1` (stereo not given) it was 150 to 152 °C; in that of `Cn1nccc1[C@H](O)c1ccccc1`, 81 to 83 °C; in that of `N#CC1c2ccccc2Cc2ccccc21`, 106 to 108 °C.
`Nc1ccc(S(=O)(=O)CCO)cc1O`: the melting point was in the range of 115 to 117 °C.
For `COC(=O)c1ccc(OCCC2CCN(c3cc(Cl)nnc3Cl)CC2)cc1` the value was 115 to 117 °C.
With `CN1CCN(c2ccc3nc(N)c(C#N)c(NCc4ccccc4)c3c2)CC1`, the melting point came to 176 °C.
For `Cc1ccc([N+](=O)[O-])c(C)c1C(=O)c1c[nH]cn1` the value was 245 to 249 °C.
In the case of `Nc1cccc(N2C(=O)CCCC2c2ccc(Cl)c(Cl)c2)c1` (stereo not given) it was 202 to 203 °C.
In the case of `CN(C(=O)c1cccc(F)c1[Si](C)(C)C)C(C)(C)C` it was 32 to 35 °C; in that of `N#Cc1c(-c2ccc(F)cc2)cc2c3c1ccn3C(=O)CNC2`, 248 to 250 °C.
Take `Cc1c(CCCCCCCC(=O)O)cccc1C(=O)c1ccc(Cl)cc1`: the melting point is 70 °C.
In the case of `CCCc1cc([N+](=O)[O-])cc2cc(C(=O)OCC)oc12` it was 111 °C; in that of `COC(=O)c1cc2cc(OC)c(OC)cc2cc1C(=O)O`, 181 to 183 °C.
In the case of `O=C1c2ccccc2S(=O)(=O)N1CF` it was 96 to 98 °C.
In the case of `N#CCNSc1ccc(Cl)cc1` it was 74 to 76 °C.
`C=Cc1ccc(-n2cnc([N+](=O)[O-])n2)c(C#N)c1` showed a melting point of 103 to 105 °C.
In the case of `C[C@H](NC(C#N)CCc1ccccc1)C(=O)O` (stereo not given in full) it was 115 °C; in that of `O=C(NCc1cccc(-c2nc(=O)c3ccccc3s2)n1)c1ccccc1`, 214 to 215 °C; in that of `O=C(Nc1cnc2cc[nH]c2c1)c1cc2cc(F)ccc2n1Cc1cccc(F)c1`, 277 to 278 °C.
Molecule `O=S(=O)(Cc1ccccc1)NCCCCOc1ccc(-n2ccnc2)cc1` had a melting point of 123 to 124 °C.
For `CCOc1ccc(CCNC(=O)c2cnc3ccccc3c2)cc1S(N)(=O)=O` the value was 222 to 231 °C.
For the molecule `Cc1cccc(Nn2cnc(C)c2-c2ccccc2)c1`, the melting point came out at 159 °C.
In the case of `CCNC(=C[N+](=O)[O-])NCCSCc1[nH]cnc1C` it was 171 to 172 °C.
For `NNC1=Nc2ccc(I)cc2C(c2ccccc2F)=NC1` the value was 179 to 181 °C; for `NS(=O)(=O)Cc1nc(-c2ccc(Cl)c(Cl)c2)cs1`, 187 to 190 °C; for `CCC12CCC3C4CCC(=O)C=C4CCC3C1CCC2OC(=O)c1ccccc1` (stereo not given), 141 to 149 °C.
For `O=C1CCC(N2Cc3c(OCc4ccc(CN5CCC(c6ccccc6)CC5)cc4)cccc3C2=O)C(=O)N1` (stereo not given) the value was 220 to 222 °C.
`Cc1ccc(S(=O)(=O)OCC2Cc3ccccc3C2)cc1`: the melting point fell in the range of 95 to 97 °C.
In the case of `O=Cc1cc(OCc2ccccc2)c(OCc2ccccc2)cc1Cl` it was 100 to 102 °C; in that of `CC1(O)C=CC2C3CCC4=CC(=O)CCC4C3C(c3ccc(-c4cccnc4)cc3)CC21C` (stereo not given), 159 °C; in that of `COC1CCc2c(cc(-c3ccccc3)n2-c2ccc(O)cc2)C1` (stereo not given), 174 to 175 °C.
For `Cn1cc(-c2ccccc2)c(=O)c(-c2ccc(F)cc2Cl)c1` the value was 190 to 192 °C.
In the case of `OCCNc1nc(Cl)nc2c1ncn2C1CC(O)C(CO)O1` (stereo not given) it was 167 to 168 °C; in that of `CC(C)C(O)c1ccc(-c2ccc(Cl)cc2)cc1` (stereo not given), 71 to 72 °C; in that of `CCOC(=O)c1cc(Br)c(C(=O)OCC)cc1F`, 30 °C.
For the molecule `O=C(NCCO)c1cc(F)cc(-c2ccc(F)c3cc(Cc4cccc(C(F)(F)F)c4)sc23)c1`, the melting point lay in the range of 107 to 108 °C.
For `CNC(=O)[C@@H]1C[C@@H](OC(C)(C)C)CN1S(=O)(=O)c1ccc(Cl)c(CBr)c1Cl` the value was 73 °C.
The molecule `CC(=O)OC1CSC(Sc2ccc(C(C)=O)cc2)C(OC(C)=O)C1OC(C)=O` (stereo not given) yielded a melting point of 122 °C.
For `N#Cc1c(N2CCCCC2)cc(-c2cccc3ccccc23)c2c1-c1ccccc1C2=O` the value was 180 to 182 °C; for `CC(C)[C@H](NC(=O)[C@@H](CSC(=O)c1ccccc1)SC(=O)c1ccccc1)C(=O)N1CCC[C@H]1C(=O)O`, 85 to 93 °C.
For `N#Cc1cc(F)cc(-c2cc(N)c3c(c2)C2(CCCCC2)C(=O)N3)c1` the value was 241 to 243 °C.
For `Nc1ccc(C(=S)SCCO)cc1` the value was 87.5 to 89.5 °C.
With `Cc1cc(-c2ccc(-c3ccco3)cc2)n(-c2ccc(S(C)(=O)=O)cc2)c1`, the melting point is 193 to 194 °C.
For `O=C(O)COc1cc(Br)c2oc3ccccc3c(=O)c2c1` the value was 219 to 221 °C; for `CN1CCCNC1=Nc1ccccc1N1CCOCC1`, 138 to 139 °C; for `O=C(Oc1ccccc1)c1ccc(N(Cc2ccccc2)Cc2ccccc2)cc1Cl`, 133 to 135 °C.
For `CCOC(=O)c1cccc(-c2ccnc(OCCc3ccc(OC)c(OC)c3)n2)c1` the value was 94 to 95 °C; for `CCCc1cc(-c2ccc(Cl)cc2)nc2c(C(=O)Nc3cccc(S(=O)(=O)NC(C)(C)CO)c3)cnn12`, 207 to 208 °C; for `COc1ccc(F)c2c(O)c3cnccc3cc12`, more than 210 °C.
For `CCc1ccc(C)c(NC(=O)C(C)(C)C)n1` the value was 72 to 75 °C; for `COc1ccc(Cn2nc(-n3cnn(Cc4ccc(F)cc4)c3=O)cc2C(=O)NCc2ccc(F)c(F)c2)cc1`, 156 to 158 °C.
Consider `Cc1c(NS(=O)(=O)c2ccccc2)cc(C(C)(C)C)cc1SC1=C(O)CC(CCc2ccc(O)cc2)(C2CCCC2)OC1=O` (racemic), for which the melting point was 125 to 127 °C.
For `OC1CCSC(=S)N1c1ccccn1` (stereo not given) the value was 120 °C.
In the case of `CCCC1=C(C#N)C(c2cccc(Cl)c2Cl)c2c[nH]nc2N1` (stereo not given) it was 242 °C; in that of `CCn1ncc2c(NCC3CCCCC3)c3ccccc3nc21`, 161 to 163 °C.
The molecule `CC(=O)NCC1CN(c2ccc(N3CC4CCCN(C(=O)CO)C4C3)c(F)c2)C(=O)O1` (stereo not given) gave a melting point of 102 to 110 °C.
For `Fc1cc(CC2(Cc3ccnc(F)c3)c3cccnc3-c3sccc32)ccn1` the value was 157 to 159 °C; for `COc1cc2c(cc1O)CCN(Cc1cc(OC)c(OC)c(OC)c1)C2`, 170 to 171 °C.
